Test results: the NIST ThermoML archive (doi:10.1021/je201334p)

How the values were obtained:
[1] = xn = mol fraction of the nth substance listed; details: 101 kPa, Liquid; for speed of sound: Sing-around technique in a fixed-path interferometer; for mass density: Vibrating tube method
[2] = refractive index (Na D-line) (dimensionless); xn = mol fraction of the nth substance listed; details: 101 kPa, Liquid, Standard Abbe refractometry

CCOS(=O)(=O)[O-].CCc1cccc[n+]1CC [1,2-diethylpyridinium ethylsulfate] + O
Details	mass density, 288.15 K [kg/m3]	mass density, 298.15 K [kg/m3]	mass density, 308.15 K [kg/m3]	refractive index, 288.15 K	refractive index, 298.15 K	refractive index, 308.15 K	speed of sound, 288.15 K [m/s]	speed of sound, 298.15 K [m/s]	speed of sound, 308.15 K [m/s]
[1], x2 = 0	1225.93	1219.26	1212.65	–	–	–	1774.5	1745.2	1718.4
[1], x2 = 0.0987	1224.31	1217.63	1211.14	–	–	–	1778.2	1749.1	1722.4
[1], x2 = 0.1089	1224.06	1217.36	1210.87	–	–	–	1778.4	1749.5	1723
[1], x2 = 0.2048	1222.4	1215.83	1209.22	–	–	–	1781.1	1753.9	1727.5
[1], x2 = 0.3037	1219.81	1213.23	1206.65	–	–	–	1787.5	1760.5	1734.4
[1], x2 = 0.3979	1216.82	1210.11	1203.43	–	–	–	1794.1	1767.4	1741.1
[1], x2 = 0.4922	1212.76	1206.04	1199.29	–	–	–	1803.5	1776.8	1750.6
[1], x2 = 0.6018	1205.78	1198.92	1192.05	–	–	–	1817.3	1790.5	1763.7
[1], x2 = 0.7084	1194.96	1187.92	1180.85	–	–	–	1836.4	1809.2	1782.1
[1], x2 = 0.8029	1177.39	1170.26	1163.05	–	–	–	1854.8	1827.2	1799.4
[1], x2 = 0.8984	1138.4	1131.51	1124.48	–	–	–	1846.6	1821.6	1795.6
[1], x2 = 0.9493	1092.23	1086.65	1080.72	–	–	–	1759.2	1746.2	1731.8
[2], x2 = 0	–	–	–	1.51631	1.5135	1.51067	–	–	–
[2], x2 = 0.0987	–	–	–	1.51478	1.51196	1.50914	–	–	–
[2], x2 = 0.1089	–	–	–	1.51458	1.51176	1.50896	–	–	–
[2], x2 = 0.2048	–	–	–	1.51266	1.50984	1.50705	–	–	–
[2], x2 = 0.3037	–	–	–	1.51023	1.50743	1.50461	–	–	–
[2], x2 = 0.3979	–	–	–	1.50723	1.5044	1.50156	–	–	–
[2], x2 = 0.4922	–	–	–	1.50325	1.50042	1.49759	–	–	–
[2], x2 = 0.6018	–	–	–	1.49668	1.49381	1.49094	–	–	–
[2], x2 = 0.7084	–	–	–	1.48656	1.48367	1.48071	–	–	–
[2], x2 = 0.8029	–	–	–	1.47121	1.46831	1.46515	–	–	–
[2], x2 = 0.8984	–	–	–	1.43938	1.43661	1.43375	–	–	–
[2], x2 = 0.9493	–	–	–	1.4043	1.40198	1.40013	–	–	–
